pEC50, pIC50: −log10 of the molar value.
Assays:
CCRF-CEM [1] = assay: Compound was evaluated for growth inhibition of parental CCRF-CEM during continuous (120 h) exposure to MTX; type: functional; conditions: Homo sapiens, read-out: ED50 (the source's name)
Dihydrofolate reductase = target: T1, Dihydrofolate reductase (Homo sapiens, UniProt P00374); assay: Inhibitory activity against purified human dihydrofolate reductase (DHFR) in human leukemia cells (CCRF-CEM)
T1 sequence (P00374 whole entry): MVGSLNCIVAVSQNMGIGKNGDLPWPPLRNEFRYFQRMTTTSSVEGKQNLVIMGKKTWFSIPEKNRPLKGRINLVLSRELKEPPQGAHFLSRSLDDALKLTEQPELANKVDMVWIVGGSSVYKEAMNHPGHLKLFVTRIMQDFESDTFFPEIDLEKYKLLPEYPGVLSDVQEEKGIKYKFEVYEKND

CCRF-CEM [2] = assay: Growth inhibition of CCRF-CEM subline resistant to MTX solely as a result of decreased polyglutamylation during continuous (120 h) exposure.; type: functional; conditions: Homo sapiens, read-out: ED50 (the source's name)
CCRF-CEM [3] = assay: Growth inhibition of CCRF-CEM subline resistant to MTX solely as a result of decreased MTX influx during continuous (120 h) exposure.; type: functional; conditions: Homo sapiens, read-out: ED50 (the source's name)
CCRF-CEM [4] = assay: Growth inhibition of CCRF-CEM subline resistant to MTX solely as a result of a 25-fold increase in wild-type DHFR activity during continuous (120 h) exposure to MTX; type: functional; conditions: Homo sapiens, read-out: ED50 (the source's name)
CCRF-CEM [5] = assay: cells; conditions: Homo sapiens, 3 h

Row | SMILES | pEC50 (CCRF-CEM [1]) | pIC50 (Dihydrofolate reductase) | pEC50 (CCRF-CEM [2]) | pEC50 (CCRF-CEM [3]) | pEC50 (CCRF-CEM [4]) | pIC50 (CCRF-CEM [5])
1 | CN(Cc1cnc2nc(N)nc(N)c2n1)c1ccc(C(=O)NC(CC(F)(F)C(=O)O)C(=O)O)cc1 (stereo not drawn) | 7.54 | 5.82 | 7.61 | 5.67 | 6.15 | 
2 | Nc1nc(N)c2nc(CNc3ccc(C(=O)N[C@@H](CCC(=O)O)C(=O)O)cc3)cnc2n1 [AMINOPTERIN] |  |  |  |  |  | 5.52
3 | CN(Cc1cnc2nc(N)nc(N)c2n1)c1ccc(C(=O)N[C@@H](CCC(=O)O)C(=O)O)cc1 [METHOTREXATE] |  |  |  | 5.59 | 6.18 | 

From ChEMBL document CHEMBL1129301, “Synthesis and biological evaluation of DL-4,4-difluoroglutamic acid and DL-gamma,gamma-difluoromethotrexate” (J Med Chem, 1996)
